Experimental data reported in ChEMBL document CHEMBL4507287, “Data for DCP probe MRL-650” (2021).
Activity calls are given as the source filed them. The calls are words filed in the database; no cut-off is given here.

Experiments:
[1] = target: Serine/threonine-protein kinase WNK3 (Homo sapiens) (UniProt Q9BYP7); conditions: Compound concentration 1000.0 nM
[2] = target: GABA-A receptor; anion channel (Rattus norvegicus) (UniProt O09028+P15431+P18506+P18508+P19969+P20236+P23574+P23576+P28471+P28473+P30191+P62813+P63079+P63138+Q91ZM7+Q9ES14); conditions: Compound concentration 10.0 uM
[3] = target: Beta-3 adrenergic receptor (Homo sapiens, UniProt P13945); assay: GPCRScan assay: inhibition of Beta3; design: radioligand conc. used [nm] 0.2 – 0.5, parental cells HEK Flp-In
[4] = target: 5-hydroxytryptamine receptor 1A (Homo sapiens) (UniProt P08908); conditions: Compound concentration 10.0 uM
[5] = target: Ribosomal protein S6 kinase alpha-6 (Homo sapiens) (UniProt Q9UK32); conditions: Compound concentration 1000.0 nM
[6] = target: Sodium-dependent dopamine transporter (Homo sapiens, UniProt Q01959); assay: GPCRScan assay: inhibition of DAT; design: radioligand conc. used [nm] 3.6 – 16.0, parental cells stable HEK
[7] = target: GABA-A receptor; anion channel; assay: GPCRScan assay: inhibition of GABAA/BZP; type: protein-complex assay, Rattus norvegicus; design: radioligand conc. used [nm] 0.6 – 4.0, parental cells brain tissue
[8] = target: Mitogen-activated protein kinase kinase kinase kinase 3 (Homo sapiens) (UniProt Q8IVH8); conditions: Compound concentration 1000.0 nM
[9] = target: 5-hydroxytryptamine receptor 2C (Homo sapiens, UniProt P28335); assay: GPCRScan assay: inhibition of 5-HT2C; design: radioligand conc. used [nm] 1.0 – 2.5, parental cells HEK T
[10] = target: Delta-type opioid receptor (Homo sapiens, UniProt P41143); assay: GPCRScan assay: inhibition of DOR; design: radioligand conc. used [nm] 1.0 – 2.0, parental cells stable HEK
[11] = target: Alpha-2C adrenergic receptor (Homo sapiens, UniProt P18825); assay: GPCRScan assay: inhibition of Alpha2C; design: radioligand conc. used [nm] 0.5 – 1.0, parental cells stable MDCK
[12] = target: Alpha-2B adrenergic receptor (Homo sapiens, UniProt P18089); assay: GPCRScan assay: inhibition of Alpha2B; design: radioligand conc. used [nm] 1.5 – 2.0, parental cells HEKT
[13] = target: 5-hydroxytryptamine receptor 1E (Homo sapiens) (UniProt P28566); conditions: Compound concentration 10.0 uM
[14] = target: Beta-1 adrenergic receptor (Homo sapiens) (UniProt P08588); conditions: Compound concentration 10.0 uM
[15] = target: 5-hydroxytryptamine receptor 2A (Homo sapiens, UniProt P28223); assay: GPCRScan assay: inhibition of 5-HT2A; design: radioligand conc. used [nm] 1.2 – 2.4, parental cells HEKT
[16] = target: Peripheral plasma membrane protein CASK (Homo sapiens) (UniProt O14936); conditions: Compound concentration 1000.0 nM
[17] = target: Serine/threonine-protein kinase ULK1 (Homo sapiens) (UniProt O75385); conditions: Compound concentration 1000.0 nM
[18] = tested on: Epidermal growth factor receptor (Homo sapiens), P00533 [UNDEFINED MUTATION]; conditions: Compound concentration 1000.0 nM
[19] = target: Phosphorylase b kinase regulatory subunit alpha, liver isoform (Homo sapiens) (UniProt P46019); conditions: Compound concentration 1000.0 nM
[20] = target: T1, Cannabinoid receptor 1 (Homo sapiens, UniProt P21554); assay: Radioligand Binding Assay (CNR1)
[21] = target: 5-hydroxytryptamine receptor 2B (Homo sapiens) (UniProt P41595); conditions: Compound concentration 10.0 uM
[22] = target: Cyclin-dependent kinase 2 (Homo sapiens) (UniProt P24941); conditions: Compound concentration 1000.0 nM
[23] = tested on: Tyrosine-protein kinase ABL1 (Homo sapiens), P00519 [H396P]; conditions: Compound concentration 1000.0 nM
[24] = target: 3-phosphoinositide-dependent protein kinase 1 (Homo sapiens) (UniProt O15530); conditions: Compound concentration 1000.0 nM
[25] = target: Aurora kinase A (Homo sapiens) (UniProt O14965); conditions: Compound concentration 1000.0 nM
[26] = target: Sodium-dependent serotonin transporter (Homo sapiens) (UniProt P31645); conditions: Compound concentration 10.0 uM
[27] = GPCRScan assay: inhibition of GABA/PBR; design: species or system Rattus norvegicus; radioligand conc. used [nm] 0.3 – 2.0, parental cells brain tissue
[28] = target: 5-hydroxytryptamine receptor 7 (Homo sapiens) (UniProt P34969); conditions: Compound concentration 10.0 uM
[29] = target: Sigma non-opioid intracellular receptor 1 (Homo sapiens, UniProt Q99720); assay: GPCRScan assay: inhibition of Sigma 1; design: radioligand conc. used [nm] 4.0 – 5.0, parental cells HEKT
[30] = target: T1, Cannabinoid receptor 1; assay: Functional activation assay
[31] = target: Sigma intracellular receptor 2 (Homo sapiens, UniProt Q5BJF2); assay: GPCRScan assay: inhibition of Sigma 2; design: radioligand conc. used [nm] 5.0, parental cells HEKT
[32] = target: Histamine H4 receptor (Homo sapiens) (UniProt Q9H3N8); conditions: Compound concentration 10.0 uM
[33] = target: 5-hydroxytryptamine receptor 6 (Homo sapiens) (UniProt P50406); conditions: Compound concentration 10.0 uM

Sequence of Ribosomal protein S6 kinase alpha-6 (Homo sapiens) (Q9UK32 whole entry): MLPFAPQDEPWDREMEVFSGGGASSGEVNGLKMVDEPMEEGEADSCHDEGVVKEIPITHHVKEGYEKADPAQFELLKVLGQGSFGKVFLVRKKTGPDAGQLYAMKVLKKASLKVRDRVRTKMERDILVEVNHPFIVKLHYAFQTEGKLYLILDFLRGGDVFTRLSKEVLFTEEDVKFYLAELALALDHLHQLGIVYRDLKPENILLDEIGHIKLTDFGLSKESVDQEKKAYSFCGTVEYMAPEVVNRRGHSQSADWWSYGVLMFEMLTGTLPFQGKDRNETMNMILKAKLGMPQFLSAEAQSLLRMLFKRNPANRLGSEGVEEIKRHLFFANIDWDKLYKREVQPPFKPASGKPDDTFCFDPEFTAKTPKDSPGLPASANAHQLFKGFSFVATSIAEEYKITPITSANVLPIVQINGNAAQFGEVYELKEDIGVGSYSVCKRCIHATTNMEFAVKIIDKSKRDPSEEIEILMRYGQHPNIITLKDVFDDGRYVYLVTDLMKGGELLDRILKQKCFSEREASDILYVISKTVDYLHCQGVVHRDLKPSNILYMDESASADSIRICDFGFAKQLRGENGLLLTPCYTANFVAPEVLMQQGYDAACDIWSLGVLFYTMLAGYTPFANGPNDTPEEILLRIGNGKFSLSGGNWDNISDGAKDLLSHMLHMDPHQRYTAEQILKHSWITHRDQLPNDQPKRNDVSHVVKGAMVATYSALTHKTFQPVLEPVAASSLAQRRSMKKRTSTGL
Sequence of 5-hydroxytryptamine receptor 2B (Homo sapiens) (P41595 whole entry): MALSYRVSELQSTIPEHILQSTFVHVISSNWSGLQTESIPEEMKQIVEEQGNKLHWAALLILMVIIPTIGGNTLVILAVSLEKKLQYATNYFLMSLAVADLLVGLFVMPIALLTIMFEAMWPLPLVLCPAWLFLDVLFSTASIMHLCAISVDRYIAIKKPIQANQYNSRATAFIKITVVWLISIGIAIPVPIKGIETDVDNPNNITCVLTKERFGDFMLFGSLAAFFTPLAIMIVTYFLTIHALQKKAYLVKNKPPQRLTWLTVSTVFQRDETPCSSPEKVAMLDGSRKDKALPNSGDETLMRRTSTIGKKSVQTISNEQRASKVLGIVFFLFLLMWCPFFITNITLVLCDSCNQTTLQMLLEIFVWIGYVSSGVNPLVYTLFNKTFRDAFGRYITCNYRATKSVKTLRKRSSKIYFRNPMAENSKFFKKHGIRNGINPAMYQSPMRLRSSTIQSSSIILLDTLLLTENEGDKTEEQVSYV
T1 sequence (P21554 whole entry): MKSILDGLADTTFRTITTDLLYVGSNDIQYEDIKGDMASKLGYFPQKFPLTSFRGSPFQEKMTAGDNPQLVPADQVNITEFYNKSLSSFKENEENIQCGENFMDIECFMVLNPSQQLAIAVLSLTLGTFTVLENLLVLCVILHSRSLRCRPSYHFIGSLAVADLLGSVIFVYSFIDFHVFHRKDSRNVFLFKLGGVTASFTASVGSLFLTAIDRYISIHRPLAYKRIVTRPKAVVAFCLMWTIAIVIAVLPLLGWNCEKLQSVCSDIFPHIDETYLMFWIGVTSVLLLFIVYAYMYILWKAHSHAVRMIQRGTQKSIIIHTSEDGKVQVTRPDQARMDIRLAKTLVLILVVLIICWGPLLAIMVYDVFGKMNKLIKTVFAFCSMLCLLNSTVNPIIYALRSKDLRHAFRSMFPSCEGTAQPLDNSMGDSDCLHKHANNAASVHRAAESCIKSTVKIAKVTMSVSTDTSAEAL
Sequence of Serine/threonine-protein kinase ULK1 (Homo sapiens) (O75385 whole entry): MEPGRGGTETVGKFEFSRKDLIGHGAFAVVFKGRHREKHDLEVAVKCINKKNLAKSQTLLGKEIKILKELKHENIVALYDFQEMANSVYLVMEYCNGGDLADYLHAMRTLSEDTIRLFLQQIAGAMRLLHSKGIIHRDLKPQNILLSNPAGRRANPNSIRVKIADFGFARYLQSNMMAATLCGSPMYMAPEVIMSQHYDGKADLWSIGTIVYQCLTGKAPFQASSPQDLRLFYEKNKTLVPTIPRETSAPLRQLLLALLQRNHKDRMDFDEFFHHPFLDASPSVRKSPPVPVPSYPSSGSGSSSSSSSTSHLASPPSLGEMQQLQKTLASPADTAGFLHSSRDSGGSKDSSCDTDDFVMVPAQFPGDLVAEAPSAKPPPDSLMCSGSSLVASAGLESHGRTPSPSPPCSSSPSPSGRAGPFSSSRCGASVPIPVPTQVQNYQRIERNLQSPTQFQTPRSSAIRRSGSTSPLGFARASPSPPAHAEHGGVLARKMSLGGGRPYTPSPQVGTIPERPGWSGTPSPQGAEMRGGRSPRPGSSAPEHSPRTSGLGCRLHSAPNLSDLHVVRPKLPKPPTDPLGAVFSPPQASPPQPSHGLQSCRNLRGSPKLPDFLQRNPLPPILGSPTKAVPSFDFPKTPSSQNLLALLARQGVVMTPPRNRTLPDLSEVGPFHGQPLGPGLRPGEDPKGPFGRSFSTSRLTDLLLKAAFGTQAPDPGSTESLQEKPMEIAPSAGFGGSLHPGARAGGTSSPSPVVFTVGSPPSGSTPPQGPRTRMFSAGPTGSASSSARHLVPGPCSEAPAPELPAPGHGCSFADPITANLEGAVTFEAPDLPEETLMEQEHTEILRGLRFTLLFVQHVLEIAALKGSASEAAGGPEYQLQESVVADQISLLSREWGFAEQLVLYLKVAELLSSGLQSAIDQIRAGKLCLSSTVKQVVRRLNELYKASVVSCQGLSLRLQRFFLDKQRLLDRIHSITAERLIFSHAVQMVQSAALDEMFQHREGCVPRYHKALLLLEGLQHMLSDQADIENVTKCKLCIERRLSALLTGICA
Sequence of 3-phosphoinositide-dependent protein kinase 1 (Homo sapiens) (O15530 whole entry): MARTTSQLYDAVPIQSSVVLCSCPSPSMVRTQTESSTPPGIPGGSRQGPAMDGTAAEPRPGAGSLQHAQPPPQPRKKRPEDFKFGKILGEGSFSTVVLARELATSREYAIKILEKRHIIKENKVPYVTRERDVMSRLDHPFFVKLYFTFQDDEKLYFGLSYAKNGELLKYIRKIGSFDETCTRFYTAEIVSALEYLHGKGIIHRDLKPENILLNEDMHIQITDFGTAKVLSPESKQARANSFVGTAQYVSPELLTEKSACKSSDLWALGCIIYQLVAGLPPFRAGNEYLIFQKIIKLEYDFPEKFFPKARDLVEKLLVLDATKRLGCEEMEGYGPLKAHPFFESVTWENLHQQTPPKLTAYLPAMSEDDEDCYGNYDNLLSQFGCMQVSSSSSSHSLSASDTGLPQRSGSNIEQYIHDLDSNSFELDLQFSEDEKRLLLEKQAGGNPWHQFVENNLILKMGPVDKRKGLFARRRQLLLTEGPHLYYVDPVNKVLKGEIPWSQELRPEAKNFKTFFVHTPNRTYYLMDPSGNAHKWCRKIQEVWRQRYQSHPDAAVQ
Sequence of Mitogen-activated protein kinase kinase kinase kinase 3 (Homo sapiens) (Q8IVH8 whole entry): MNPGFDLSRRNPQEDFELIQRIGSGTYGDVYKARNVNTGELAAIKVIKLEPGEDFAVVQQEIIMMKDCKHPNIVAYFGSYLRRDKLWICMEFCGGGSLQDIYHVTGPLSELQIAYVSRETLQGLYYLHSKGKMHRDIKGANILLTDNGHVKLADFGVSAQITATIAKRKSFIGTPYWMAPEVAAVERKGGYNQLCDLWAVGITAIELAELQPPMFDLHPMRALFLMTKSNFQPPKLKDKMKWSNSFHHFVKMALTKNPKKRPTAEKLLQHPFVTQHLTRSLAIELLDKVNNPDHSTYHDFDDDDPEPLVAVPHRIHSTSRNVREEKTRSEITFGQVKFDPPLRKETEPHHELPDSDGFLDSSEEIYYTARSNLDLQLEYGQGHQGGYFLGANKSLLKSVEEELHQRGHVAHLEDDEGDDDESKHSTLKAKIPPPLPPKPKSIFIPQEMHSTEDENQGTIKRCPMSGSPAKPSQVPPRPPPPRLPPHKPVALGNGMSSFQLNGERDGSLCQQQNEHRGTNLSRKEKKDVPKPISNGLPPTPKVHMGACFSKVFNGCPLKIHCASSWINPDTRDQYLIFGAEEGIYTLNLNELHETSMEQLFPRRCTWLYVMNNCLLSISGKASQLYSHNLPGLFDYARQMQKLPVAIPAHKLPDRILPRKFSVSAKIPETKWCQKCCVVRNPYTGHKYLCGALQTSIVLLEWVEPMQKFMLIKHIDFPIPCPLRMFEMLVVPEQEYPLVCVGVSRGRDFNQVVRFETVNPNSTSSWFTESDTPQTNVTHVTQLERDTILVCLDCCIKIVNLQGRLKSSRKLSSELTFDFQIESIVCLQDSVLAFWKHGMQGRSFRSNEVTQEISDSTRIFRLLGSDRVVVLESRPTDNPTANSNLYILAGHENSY
Sequence of Sodium-dependent dopamine transporter (Q01959 whole entry): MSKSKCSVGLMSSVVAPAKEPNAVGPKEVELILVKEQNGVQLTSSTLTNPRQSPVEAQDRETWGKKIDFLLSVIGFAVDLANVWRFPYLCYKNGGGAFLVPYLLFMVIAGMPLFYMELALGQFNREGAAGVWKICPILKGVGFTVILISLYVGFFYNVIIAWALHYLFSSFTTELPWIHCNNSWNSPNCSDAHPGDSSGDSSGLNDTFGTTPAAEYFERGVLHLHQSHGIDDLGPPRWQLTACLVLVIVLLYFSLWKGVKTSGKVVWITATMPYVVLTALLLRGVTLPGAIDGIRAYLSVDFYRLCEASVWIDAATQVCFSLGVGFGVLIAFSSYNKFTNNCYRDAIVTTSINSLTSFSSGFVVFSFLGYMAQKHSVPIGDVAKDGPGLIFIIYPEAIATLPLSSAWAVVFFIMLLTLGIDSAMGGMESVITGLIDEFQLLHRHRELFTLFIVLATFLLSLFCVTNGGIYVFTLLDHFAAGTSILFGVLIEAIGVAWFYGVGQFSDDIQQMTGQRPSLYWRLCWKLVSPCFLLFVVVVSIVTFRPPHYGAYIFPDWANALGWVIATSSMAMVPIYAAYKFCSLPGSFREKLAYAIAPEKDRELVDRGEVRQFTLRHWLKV
Sequence of Sigma non-opioid intracellular receptor 1 (Q99720 whole entry): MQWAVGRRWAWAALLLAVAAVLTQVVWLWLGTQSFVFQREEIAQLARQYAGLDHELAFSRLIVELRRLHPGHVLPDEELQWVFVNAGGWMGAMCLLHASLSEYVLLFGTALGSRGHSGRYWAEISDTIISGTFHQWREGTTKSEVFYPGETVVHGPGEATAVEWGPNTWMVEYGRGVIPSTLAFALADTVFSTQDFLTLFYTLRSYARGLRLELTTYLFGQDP

Row | Structure (SMILES) | residual activity [1] [%] | residual activity [5] [%] | residual activity [8] [%] | residual activity [16] [%] | residual activity [17] [%] | residual activity [18] [%] | residual activity [19] [%] | inhibition [21] [%] | residual activity [22] [%] | residual activity [23] [%] | residual activity [24] [%] | residual activity [25] [%] | further results
1 | CC(=O)c1c(NS(C)(=O)=O)c2cc(-c3ccc(Cl)cc3)c(-c3ccc(Cl)cc3Cl)nc2n(C)c1=O [MRL-CB1-NC] | 80 | 76 | 99 | 92 | 67 | 90 | 100 | -0.601 | 100 | 100 | 100 | 87 | inhibition [2]: 0.954%; Ki [3]: 1130 nM; inhibition [4]: 28.7%; Ki ([6]; read-out: Ki): 766 nM; Ki ([6]; read-out: pKi (converted)): 794 nM; Ki [7]: 1660 nM; Ki [9]: 22 nM; Ki [10]: 1410 nM; Ki [11]: 10000 nM; Ki [12]: 1690 nM; inhibition [13]: 29.2%; inhibition [14]: 25.6%; Ki [15]: 1810 nM; Inverse agonism [20]: 32.5%
2 | CC(=O)Nc1c(C(C)=O)c(=O)n(C)c2nc(-c3ccc(Cl)cc3Cl)c(-c3ccc(Cl)cc3)cc12 [NAPHTHYRIDINONE] | 100 | 88 | 100 | 83 | 66 | 86 | 100 | 1.6 | 100 | 100 | 100 | 100 | inhibition [26]: -9.53%; Ki [27]: 82 nM; pKi [27]: 7.09; inhibition [28]: 0.657%; Ki [29]: 1160 nM; EC50 [30]: 4.9 nM (active); Ki [31]: 605 nM; inhibition [32]: 13.9%; inhibition [33]: -3.97%
